Reference: patent US20220257974A1, “PHOTOBIOMODULATION METHOD AND SYSTEM FOR INDUCING ACTIVITY OF BRAINDERIVED NERVE GROWTH FACTOR IN HIPPOCAMPAL TISSUE” (INDUSTRY ACADEMIC COOPERATION FOUNDATION KEIMYUNG UNIVERSITY, priority 2019, published 2022)

Key:
[1] = test system: BDNF; details: PTSD-induced mice; cited from earlier work
[2] = test system: p-ERK and p-CREB; assay: Western blot analysis of ERK and CREB phosphorylation in HT-22 cells; format: cell-based; details: H2O2 treatment
Protocol: The level of protein expression was evaluated by Western blot analysis. Cells were dissolved and centrifuged at 16,000 g. Then, the supernatant was electrophoresed at 12% SDA-PAGE and transferred to a nitrocellulose membrane. After blocking with 5% skim milk among Tween (0.05%)/PBS for 1 hour, the membrane was detected with primary antibody and a horseradish peroxidase (HRP)-conjugated antibody. The immunoreactive band was visualized using West Femto Chemi-luminescent substrate (Thermo). Protein levels were standardized with -actin expression using ChemiDOC XRS+ (Bio-Rad, Hercules, Calif., USA).

[3] = test system: HT-22 cells; assay: MTT analysis of cell survival under H2O2-induced oxidative stress; format: cell-based; details: without LED light
Protocol: The protection against apoptosis was analyzed using CCK-8 kit (Dojindo, Gaithersburg, Md.) and MTT as follows: HT-22 cells (5×10^5/ml) were plated on a 96-well plate and cultured in 100 µL of DMEM medium for 24 hours. Various concentrations of H2O2 were added to the cells, and the cells were cultured for 24 hours with LED irradiation of 660 nm. Then, 10 µL of MTT solution (5 mg/ml MTT in PBS) was added to each well and cultured at 37° C. for 2 hours. Absorbance was measured at 450 nm and 564 nm with a Victor multi label counter (Wallac, Turku, Finland).
The hippocampus HT-22 cell line was used to evaluate the effect of H2O2-induced oxidative stress on cell survival and apoptosis inhibitory effect by 660 nm of LED light (FIG. 2). […] In contrast, treatment with 660 nm of LED light increased cell survival rates to 88.4, 66.2, and 22.0%, respectively.

[4] = test system: BDNF; assay: RT-PCR of BDNF expression in HT-22 cell; format: cell-based; details: H2O2 treatment
Excerpt: The used […] BDNF, forward [NT], and reverse [NT]; glutathione peroxidase (GPx), forward [NT], and reverse [NT]; superoxide dismutasee 1 (SOD1), forward [NT], and reverse [NT]; glutathione reductase (GR), forward [NT], and reverse [NT]; and h-GAPDH transfer [NT], reverse [NT]. All experiments were implemented three times.

## CNCCC(Oc1ccc(C(F)(F)F)cc1)c1ccccc1 (stereo not drawn) [fluoxetine]
[1]
  expression of BDNF and exercise ability: improved

## OO [H2O2]
[2]
  p-ERK and p-CREB levels: increased p-ERK and p-CREB levels
[3]; H2O2 100M
  cell survival rate: 72.7%
[3]; H2O2 300M
  cell survival rate: 57.3%
[3]; H2O2 1000M
  cell survival rate: 20.7%
[4]
  BDNF expression: reduced BDNF expression
